# Test results: US11795177B2, “Substituted quinoline analogs as aldehyde dehydrogenase 1A1 (ALDH1A1) inhibitors” (THE UNITED STATES OF AMERICA, AS REPRESENTED BY THE …, priority 2017, dated 2023)
# Structures can show the parent of a compound that is named as a salt.
# Molecular target: T1, ALDH1A1 enzyme (Homo sapiens, UniProt P00352)
# T1 sequence (P00352 1-501): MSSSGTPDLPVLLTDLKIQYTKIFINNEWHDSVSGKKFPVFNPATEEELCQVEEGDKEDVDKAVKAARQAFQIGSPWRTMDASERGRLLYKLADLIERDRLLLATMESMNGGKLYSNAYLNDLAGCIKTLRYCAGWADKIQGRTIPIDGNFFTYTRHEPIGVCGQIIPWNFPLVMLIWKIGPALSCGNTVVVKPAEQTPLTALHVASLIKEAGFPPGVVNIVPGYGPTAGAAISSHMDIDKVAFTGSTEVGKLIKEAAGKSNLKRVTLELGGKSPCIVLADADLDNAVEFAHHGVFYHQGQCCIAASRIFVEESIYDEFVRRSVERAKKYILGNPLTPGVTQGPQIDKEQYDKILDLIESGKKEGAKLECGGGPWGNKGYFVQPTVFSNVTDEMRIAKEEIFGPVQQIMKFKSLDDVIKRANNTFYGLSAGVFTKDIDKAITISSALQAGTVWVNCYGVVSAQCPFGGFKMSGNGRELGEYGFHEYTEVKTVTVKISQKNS
# Assay: ALDH1A1 enzymatic assay (in vitro)
# Type: biochemical
# Conditions: ALDH1A1 enzyme 20 nM, NAD+ 1 mM, propionaldehyde 80 μM; read-out: ALDH1A1 IC50
# Experimental: Example 358. ALDH1A1 Enzymatic Assay (In Vitro Assay)
# 3 μL of ALDH1A1 enzyme (final concentration 20 nM) or assay buffer (100 mM HEPES pH 7.5 with 0.01% Tween 20) were dispensed into a 1,536-well solid-bottom black plate (Greiner Bio One, Monroe, N.C.) followed by pin-tool transfer (23 nL) of candidate inhibitors (final concentration range 968 pM to 57.2 μM) and control (Bay 11-7085, final concentration range 1.31 nM to 2.86 μM). Samples were incubated (RT, protected from light) for 15 minutes followed by a 1 μL substrate addition of NAD^+ and Propionaldehyde (final concentrations of 1 mM and 80 μM, respectively). Plates were centrifuged at 1,000 rpm for 15 seconds, then read in kinetic mode on a ViewLux High-throughput CCD imager (Perkin-Elmer) equipped with standard UV fluorescence optics (340 nm excitation, 450 nm emission) for 10 minutes. The change in fluorescence intensity over the 10-minute reaction period was normalized against no-inhibitor and no-enzyme controls and the resulting percent inhibition data were fitted for biological activity.
row,IC50 [µM],SMILES
1,> 10,"COc1ccc2ncc(C(=O)N3CCN(C(=O)C4CC4)CC3)c(-c3cnn(C)c3)c2c1 [Example 41, (4-(cyclopropanecarbonyl)piperazin-1-yl)(6-methoxy-4-(1-methyl-1H-pyrazol-4-yl)quinolin-3-yl)methanone]"
2,> 10,"COc1ccc2ncc(C(=O)N3CCN(C(=O)C4CC4)CC3)c(NC3CCN(C)CC3)c2c1 [Example 21, (4-(cyclopropanecarbonyl)piperazin-1-yl)(6-methoxy-4-((1-methylpiperidin-4-yl)amino)quinolin-3-yl)methanone, TFA]"
3,> 10,"COc1ccc2ncc(C(=O)N3CCN(C(=O)C4CC4)CC3)c(N3CCN(c4ccncc4)CC3)c2c1 [Example 20, (4-(cyclopropanecarbonyl)piperazin-1-yl)(6-methoxy-4-(4-(pyridin-4-yl)piperazin-1-yl)quinolin-3-yl)methanone, TFA]"

# Tested on: MIA PaCa-2 cells
# Assay: MIA PaCa2 cell-based assay (1,536-well high-content imaging ALDEFLUOR assay)
# Set-up: species or system human
# Conditions: Homo sapiens, 0.5 h, ALDEFLUOR BAAA substrate 500 nM, 30 minutes
# Method in brief: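 MIA PaCa-2 cells (1,000/well), plated overnight, given BAAA substrate (500 nM) plus Hoechst 33342 (0.5 nM), then compound (16-point, 1.4 nM–47.8 μM final; 0.5% DMSO). After 30 min at 37° C, ALDH activity imaged by high-content microscopy as BAA-retaining (FITC) cells versus Hoechst-stained nuclei.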
row,SMILES,IC50 [µM]
1,"O=C(c1cnc2ccc(F)cc2c1N1CCC2(CCCC2)CC1)N1CCN(C(=O)C2CC2)CC1 [Example 62, (4-(cyclopropanecarbonyl)piperazin-1-yl)(6-fluoro-4-(8-azaspiro[4.5]decan-8-yl)quinolin-3-yl)methanone]",> 10
2,"CCC1(CC)CCN(c2c(C(=O)N3CCN(C(=O)C4CC4)CC3)cnc3ccc(F)cc23)CC1 [Example 81, (4-(cyclopropanecarbonyl)piperazin-1-yl)(4-(4,4-diethylpiperidin-1-yl)-6-fluoroquinolin-3-yl)methanone]",1 to 10
3,"O=C(c1cnc2ccc(F)cc2c1N1CCC(Cc2ccccc2)CC1)N1CCN(C(=O)C2CC2)CC1 [Example 200, (4-(4-benzylpiperidin-1-yl)-6-fluoroquinolin-3-yl)(4-(cyclopropanecarbonyl)piperazin-1-yl)methanone]",> 10
4,"O=C(c1cnc2ccc(F)cc2c1N1CCC(c2ccccc2)CC1)N1CCN(C(=O)C2CC2)CC1 [Example 72, (4-(cyclopropanecarbonyl)piperazin-1-yl)(6-fluoro-4-(4-phenylpiperidin-1-yl)quinolin-3-yl)methanone]",> 10
5,"CC1(C#N)CCN(c2c(C(=O)N3CCN(S(C)(=O)=O)C(C)(C)C3)cnc3ccc(F)cc23)CC1 [Example 229, 1-(3-(3,3-dimethyl-4-(methylsulfonyl)piperazine-1-carbonyl)-6-fluoroquinolin-4-yl)-4-methylpiperidine-4-carbonitrile]",> 10
6,"COc1cc2ncc(C(=O)N3CCN(C(=O)C4CC4)CC3)c(N3CCC4(CC3)OCCO4)c2cc1OC [Example 48, (4-(cyclopropanecarbonyl)piperazin-1-yl)(6,7-dimethoxy-4-(1,4-dioxa-8-azaspiro[4.5]decan-8-yl)quinolin-3-yl)methanone]",1 to 10
7,"COc1ccc2c(N3CCC4(CC3)OCCO4)c(C(=O)N3CCN(C(=O)C4CC4)CC3)cnc2c1 [Example 47, (4-(cyclopropanecarbonyl)piperazin-1-yl)(7-methoxy-4-(1,4-dioxa-8-azaspiro[4.5]decan-8-yl)quinolin-3-yl)methanone]",1 to 10
8,"N#CC1(Cc2ccccc2)CCN(c2c(C(=O)N3CCN(C(=O)C4CC4)CC3)cnc3ccc(F)cc23)CC1 [Example 244, 4-benzyl-1-(3-(4-(cyclopropanecarbonyl)piperazine-1-carbonyl)-6-fluoroquinolin-4-yl)piperidine-4-carbonitrile]",> 10
9,"Cc1cc(F)cc2c(N3CCC4(CC3)OCCO4)c(C(=O)N3CCN(C(=O)C4CC4)CC3)cnc12 [Example 73, (4-(cyclopropanecarbonyl)piperazin-1-yl)(6-fluoro-8-methyl-4-(1,4-dioxa-8-azaspiro[4.5]decan-8-yl)quinolin-3-yl)methanone]",1 to 10
10,"O=C(c1cnc2ccc(F)cc2c1N1CCC(F)CC1)N1CCN(C(=O)C2CC2)CC1 [Example 76, (4-(cyclopropanecarbonyl)piperazin-1-yl)(6-fluoro-4-(4-fluoropiperidin-1-yl)quinolin-3-yl)methanone]",> 10

# Next, values leading:
row,IC50 [µM],SMILES
1,< 0.5,"CS(=O)(=O)N1CCN(C(=O)c2cnc3ccc(F)cc3c2-c2ccc(C3(C#N)CCC3)cc2)CC1 [Cpd. 308, 1-(4-(6-fluoro-3-(4-(methylsulfonyl)piperazine-1-carbonyl)quinolin-4-yl)phenyl)cyclobutanecarbonitrile]"
2,< 0.5,"CS(=O)(=O)N1CCN(C(=O)c2cnc3ccc(Cl)cc3c2-c2ccc(C3(C#N)CC3)cc2)CC1 [Example 297, 1-(4-(6-chloro-3-(4-(methylsulfonyl)piperazine-1-carbonyl)quinolin-4-yl)phenyl)cyclopropanecarbonitrile]"
3,< 0.5,"COc1ccc2c(N3CCC(C#N)(c4ccccc4)CC3)c(C(=O)N3CCN(S(C)(=O)=O)CC3)cnc2c1 [Cpd. 318, 1-(7-methoxy-3-(4-(methylsulfonyl)piperazine-1-carbonyl)quinolin-4-yl)-4-phenylpiperidine-4-carbonitrile]"
4,< 0.5,"CC(C)(C)c1ccc(-c2c(C(=O)N3CCN(S(C)(=O)=O)CC3)cnc3ccc(F)cc23)cc1 [Cpd. 306, (4-(4-(tert-butyl)phenyl)-6-fluoroquinolin-3-yl)(4-(methylsulfonyl)piperazin-1-yl)methanone]"
5,< 0.5,"CN(C)S(=O)(=O)N1CCN(C(=O)c2cnc3ccc(F)cc3c2N2CCC(C#N)(c3ccccc3)CC2)CC1 [Example 270, 4-(4-(4-cyano-4-phenylpiperidin-1-yl)-6-fluoroquinoline-3-carbonyl)-N,N-dimethylpiperazine-1-sulfonamide]"
6,< 0.5,"CS(=O)(=O)N1CCN(C(=O)c2cnc3ccc(F)cc3c2N2CCC(C=O)(c3ccccc3)CC2)CC1 [Example 257, 1-(6-fluoro-3-(4-(methylsulfonyl)piperazine-1-carbonyl)quinolin-4-yl)-4-phenylpiperidine-4-carbaldehyde]"
7,< 0.5,"CS(=O)(=O)N1CCN(C(=O)c2cnc3c(F)cc(F)cc3c2-c2ccc(C3(C#N)CC3)cc2)CC1 [Cpd. 324, 1-(4-(6,8-difluoro-3-(4-(methylsulfonyl)piperazine-1-carbonyl)quinolin-4-yl)phenyl)cyclopropane-1-carbonitrile]"
8,1 to 10,"C=CS(=O)(=O)N1CCN(c2c(C(=O)N3CCN(S(C)(=O)=O)CC3)cnc3ccc(F)cc23)CC1 [Example 221, (6-fluoro-4-(4-(vinylsulfonyl)piperazin-1-yl)quinolin-3-yl)(4-(methylsulfonyl)piperazin-1-yl)methanone]"
9,< 0.5,"CS(=O)(=O)N1CCN(C(=O)c2cnc3ccc(F)cc3c2-c2ccc(C3(C#N)CC3)cc2F)CC1 [Cpd. 315, 1-(3-fluoro-4-(6-fluoro-3-(4-(methylsulfonyl)piperazine-1-carbonyl)quinolin-4-yl)phenyl)cyclopropanecarbonitrile]"
10,< 0.5,"CN(C)S(=O)(=O)N1CCN(C(=O)c2cnc3ccc(F)cc3c2-c2ccc(C3(C#N)CC3)cc2)CC1 [Example 260, 4-(4-(4-(1-cyanocyclopropyl)phenyl)-6-fluoroquinoline-3-carbonyl)-N,N-dimethylpiperazine-1-sulfonamide]"
11,1 to 10,"CC1(C#N)CCN(c2c(C(=O)N3CCC(S(C)(=O)=O)CC3)cnc3ccc(F)cc23)CC1 [Example 188, 1-(6-fluoro-3-(4-(methylsulfonyl)piperidine-1-carbonyl)quinolin-4-yl)-4-methylpiperidine-4-carbonitrile]"
12,< 0.5,"CN(C)C(=O)N1CCN(C(=O)c2cnc3ccc(F)cc3c2N2CCC(C#N)(c3ccccc3)CC2)CC1 [Example 272, 4-(4-(4-cyano-4-phenylpiperidin-1-yl)-6-fluoroquinoline-3-carbonyl)-N,N-dimethylpiperazine-1-carboxamide]"
13,< 0.5,"CC(=O)C1(c2ccccc2)CCN(c2c(C(=O)N3CCN(S(C)(=O)=O)CC3)cnc3ccc(F)cc23)CC1 [Example 216, 1-(1-(6-fluoro-3-(4-(methylsulfonyl)piperazine-1-carbonyl)quinolin-4-yl)-4-phenylpiperidin-4-yl)ethanone]"
14,< 0.5,"CS(=O)(=O)N1CCN(C(=O)c2cnc3ccc(Cl)cc3c2N2CCC(C#N)(c3ccccc3)CC2)CC1 [Cpd. 316, 1-(6-chloro-3-(4-(methylsulfonyl)piperazine-1-carbonyl)quinolin-4-yl)-4-phenylpiperidine-4-carbonitrile]"
